Results: article PMC4354951 (European journal of medicinal chemistry, 2008)
“Also recorded” adds a separate entry of the source.

How the values were obtained:
[1] = target: T1, human NTPDase1 (Homo sapiens, UniProt P49961); test: Hydrolysis by NTPDase1; type: biochemical; conditions: 100 μM substrate; relative to ATP hydrolysis (100%)
T1 sequence (P49961 1-510): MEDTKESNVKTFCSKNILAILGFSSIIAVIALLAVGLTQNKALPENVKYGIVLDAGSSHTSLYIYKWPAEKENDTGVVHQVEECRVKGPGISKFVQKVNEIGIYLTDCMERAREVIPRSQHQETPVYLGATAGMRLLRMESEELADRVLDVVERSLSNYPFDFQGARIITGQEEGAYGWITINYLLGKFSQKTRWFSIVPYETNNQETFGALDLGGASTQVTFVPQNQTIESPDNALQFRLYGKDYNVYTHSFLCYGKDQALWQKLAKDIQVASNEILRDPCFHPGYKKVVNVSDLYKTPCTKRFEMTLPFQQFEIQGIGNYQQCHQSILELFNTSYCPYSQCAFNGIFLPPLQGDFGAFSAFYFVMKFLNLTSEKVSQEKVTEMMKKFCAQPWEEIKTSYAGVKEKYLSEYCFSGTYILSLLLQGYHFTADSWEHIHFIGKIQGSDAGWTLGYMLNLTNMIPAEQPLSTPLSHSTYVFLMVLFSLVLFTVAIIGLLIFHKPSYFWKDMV

[2] = target: T2, human NTPDase2 (Homo sapiens, UniProt Q9Y5L3); test: Hydrolysis by NTPDase2; type: biochemical; conditions: 100 μM substrate; relative to ATP hydrolysis (100%)
T2 sequence (Q9Y5L3 1-495): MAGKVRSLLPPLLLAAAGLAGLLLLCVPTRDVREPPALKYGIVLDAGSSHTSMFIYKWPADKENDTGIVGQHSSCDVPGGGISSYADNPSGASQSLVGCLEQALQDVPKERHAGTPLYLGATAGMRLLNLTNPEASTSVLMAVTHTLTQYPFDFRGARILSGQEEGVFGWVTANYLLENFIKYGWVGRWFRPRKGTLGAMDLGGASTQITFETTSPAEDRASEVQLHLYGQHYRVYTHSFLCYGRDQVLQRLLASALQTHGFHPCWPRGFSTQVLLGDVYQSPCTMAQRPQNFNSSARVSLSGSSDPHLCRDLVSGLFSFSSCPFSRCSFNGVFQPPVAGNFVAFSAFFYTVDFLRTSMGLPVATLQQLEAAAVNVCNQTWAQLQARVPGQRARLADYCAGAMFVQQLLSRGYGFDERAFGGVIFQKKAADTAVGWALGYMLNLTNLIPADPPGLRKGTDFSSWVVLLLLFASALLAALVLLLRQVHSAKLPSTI

[3] = target: T3, human NTPDase3 (Homo sapiens, UniProt O75355); test: Hydrolysis by NTPDase3; type: biochemical; conditions: 100 μM substrate; relative to ATP hydrolysis (100%)
T3 sequence (O75355 1-529): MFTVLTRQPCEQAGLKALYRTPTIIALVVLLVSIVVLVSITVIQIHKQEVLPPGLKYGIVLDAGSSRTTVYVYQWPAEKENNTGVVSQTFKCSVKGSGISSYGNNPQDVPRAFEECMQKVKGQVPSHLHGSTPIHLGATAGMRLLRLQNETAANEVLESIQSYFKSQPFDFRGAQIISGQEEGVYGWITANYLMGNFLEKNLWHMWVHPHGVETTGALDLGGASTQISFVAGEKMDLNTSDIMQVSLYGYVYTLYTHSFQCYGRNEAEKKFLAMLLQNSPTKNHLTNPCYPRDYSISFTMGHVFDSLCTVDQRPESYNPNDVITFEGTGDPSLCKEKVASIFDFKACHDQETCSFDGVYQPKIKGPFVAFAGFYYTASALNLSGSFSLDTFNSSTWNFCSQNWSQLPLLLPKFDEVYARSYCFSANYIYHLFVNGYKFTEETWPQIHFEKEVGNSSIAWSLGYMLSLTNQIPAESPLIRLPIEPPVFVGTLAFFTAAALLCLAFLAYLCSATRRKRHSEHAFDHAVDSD

[4] = target: T4, human NTPDase8 (Homo sapiens, UniProt Q5MY95); test: Hydrolysis by NTPDase8; type: biochemical; conditions: 100 μM substrate; relative to ATP hydrolysis (100%)
T4 sequence (Q5MY95 1-495): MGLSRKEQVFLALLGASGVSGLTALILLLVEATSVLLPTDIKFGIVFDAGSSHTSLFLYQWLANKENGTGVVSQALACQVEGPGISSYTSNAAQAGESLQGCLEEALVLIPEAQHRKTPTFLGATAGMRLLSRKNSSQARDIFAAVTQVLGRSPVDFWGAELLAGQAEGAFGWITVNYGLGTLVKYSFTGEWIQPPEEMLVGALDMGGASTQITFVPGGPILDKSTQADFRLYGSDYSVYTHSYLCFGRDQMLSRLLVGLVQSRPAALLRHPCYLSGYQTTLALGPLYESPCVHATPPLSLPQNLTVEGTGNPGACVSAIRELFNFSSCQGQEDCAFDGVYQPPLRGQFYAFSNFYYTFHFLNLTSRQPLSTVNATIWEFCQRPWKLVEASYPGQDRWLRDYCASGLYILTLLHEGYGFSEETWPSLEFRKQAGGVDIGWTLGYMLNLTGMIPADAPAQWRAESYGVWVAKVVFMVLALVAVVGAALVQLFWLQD

[5] = target: turkey P2Y1 receptor (Meleagris gallopavo, UniProt P49652); type: cell-based; conditions: 1321N1 cell transfectants; for EC50: read-out: EC50 of analogue-induced increase in [Ca2+]i, P2Y1
Chain of turkey P2Y1 receptor (P49652 whole entry): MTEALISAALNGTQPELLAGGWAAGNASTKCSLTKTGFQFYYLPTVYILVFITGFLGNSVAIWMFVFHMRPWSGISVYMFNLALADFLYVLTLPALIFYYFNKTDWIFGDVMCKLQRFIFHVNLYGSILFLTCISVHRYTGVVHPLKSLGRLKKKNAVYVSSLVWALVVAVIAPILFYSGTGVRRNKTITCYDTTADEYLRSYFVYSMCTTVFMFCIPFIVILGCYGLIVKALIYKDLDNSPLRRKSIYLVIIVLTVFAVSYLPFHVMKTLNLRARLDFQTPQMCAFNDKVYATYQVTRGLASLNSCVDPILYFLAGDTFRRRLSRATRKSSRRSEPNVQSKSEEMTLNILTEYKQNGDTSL

[6] = target: human P2Y2 receptor (Homo sapiens, UniProt P41231); test: Increase in [Ca2+]i in 1321N1 astrocytoma cells expressing P2Y2 receptor; type: cell-based; conditions: 1321N1 cell transfectants; for EC50: read-out: EC50 of analogue-induced increase in [Ca2+]i, P2Y2
Chain of human P2Y2 receptor (P41231 whole entry): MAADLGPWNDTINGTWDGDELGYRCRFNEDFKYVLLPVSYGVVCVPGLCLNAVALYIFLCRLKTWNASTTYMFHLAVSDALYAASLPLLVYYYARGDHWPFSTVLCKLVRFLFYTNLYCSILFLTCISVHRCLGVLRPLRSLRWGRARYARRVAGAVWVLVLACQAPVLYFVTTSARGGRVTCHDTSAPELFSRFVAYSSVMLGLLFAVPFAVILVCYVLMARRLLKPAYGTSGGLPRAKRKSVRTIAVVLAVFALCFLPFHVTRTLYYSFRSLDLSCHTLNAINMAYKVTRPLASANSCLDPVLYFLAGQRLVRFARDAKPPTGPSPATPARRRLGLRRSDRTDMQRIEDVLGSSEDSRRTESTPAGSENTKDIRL

[7] = target: human P2Y4 receptor (Homo sapiens, UniProt P51582); test: Increase in [Ca2+]i in 1321N1 astrocytoma cells expressing P2Y4 receptor; type: cell-based; conditions: 1321N1 cell transfectants; for EC50: read-out: EC50 of analogue-induced increase in [Ca2+]i, P2Y4
Chain of human P2Y4 receptor (P51582 whole entry): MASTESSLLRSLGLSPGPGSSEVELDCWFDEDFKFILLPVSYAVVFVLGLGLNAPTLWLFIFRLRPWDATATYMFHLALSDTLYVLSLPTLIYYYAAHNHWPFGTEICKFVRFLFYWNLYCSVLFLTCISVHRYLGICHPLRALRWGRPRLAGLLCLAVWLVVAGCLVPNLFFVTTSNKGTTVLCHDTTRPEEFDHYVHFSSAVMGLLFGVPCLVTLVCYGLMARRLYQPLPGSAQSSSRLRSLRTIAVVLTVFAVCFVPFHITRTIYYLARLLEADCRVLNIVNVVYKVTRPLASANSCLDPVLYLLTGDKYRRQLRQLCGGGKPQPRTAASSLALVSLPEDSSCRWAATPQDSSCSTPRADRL

[8] = target: rat P2Y6 receptor (Rattus norvegicus, UniProt Q63371); test: Increase in [Ca2+]i in 1321N1 astrocytoma cells expressing P2Y6 receptor; type: cell-based; conditions: 1321N1 cell transfectants; for EC50: read-out: EC50 of analogue-induced increase in [Ca2+]i, P2Y6
Chain of rat P2Y6 receptor (Q63371 whole entry): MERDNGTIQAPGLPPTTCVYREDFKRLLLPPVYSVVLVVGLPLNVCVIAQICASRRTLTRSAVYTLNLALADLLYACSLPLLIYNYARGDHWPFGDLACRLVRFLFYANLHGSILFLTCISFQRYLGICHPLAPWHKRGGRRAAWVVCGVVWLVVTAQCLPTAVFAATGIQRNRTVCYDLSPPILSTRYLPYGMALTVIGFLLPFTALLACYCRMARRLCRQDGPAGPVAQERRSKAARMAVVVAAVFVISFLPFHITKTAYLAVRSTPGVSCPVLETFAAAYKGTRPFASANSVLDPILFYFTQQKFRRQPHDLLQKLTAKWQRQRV

Structure (SMILES)	Relative activity of NTPDase1 [1] [%]	Relative activity of NTPDase2 [2] [%]	Relative activity of NTPDase3 [3] [%]	Relative activity of NTPDase8 [4] [%]	agonist activity at P2Y1R [5]	EC50 [5] [µM]	agonist activity at P2Y2R [6]	EC50 [6] [µM]	agonist activity at P2Y4R [7]	EC50 [7] [µM]	agonist activity at P2Y6R [8]	EC50 [8] [µM]
[BH3-][P+](O)(OC[C@H]1O[C@@H](n2cnc3c(N)ncnc32)[C@H](O)[C@@H]1O)OP(=O)(O)CP(=O)(O)O (single isomer, unassigned) [3A, Adenosine-5′-O-(α-boranotriphosphate)-β,γ-CH2]	1.0 ± 2.1	1.0 ± 0.2	0	2.0 ± 0.03	insignificant activities; also recorded: practically inactive	> 100	insignificant activities	> 100	insignificant activities	> 100	insignificant activities	> 100
[BH3-][P+](O)(OC[C@H]1O[C@@H](n2cnc3c(N)ncnc32)[C@H](O)[C@@H]1O)OP(=O)(O)CP(=O)(O)O (single isomer, unassigned) [3B, Adenosine-5′-O-(α-boranotriphosphate)-β,γ-CH2]	0	0	6.0 ± 0.16	<1	insignificant activities	> 100	insignificant activities	> 100	insignificant activities	> 100	insignificant activities	> 100
[BH3-][P+](O)(OC[C@H]1O[C@@H](n2cnc3c(N)nc(SC)nc32)[C@H](O)[C@@H]1O)OP(=O)(O)CP(=O)(O)O (single isomer, unassigned) [4A, 2-MeS–adenosine-5′-O-(α-boranotriphosphate)-β,γ-CH2]	<1	1.0 ± 0.1	2.0 ± 0.26	4.0 ± 0.02	insignificant activities; also recorded: practically inactive; also recorded: no activity	> 100	insignificant activities; also recorded: inactivity	> 100	insignificant activities	> 100	insignificant activities	> 100
